Where “and” joins values, the source holds several entries; their conditions need not be identical. Identical values can stand only once.
What was measured:
[1] = Solubility in water and octanol and log P at 25°C
Source text: beyond changes in oral bioavailability and solubility. This is particularly relevant when […]
L og P is the logarithmic value of the oil-water partition coefficient P, which refers to the partition equilibrium of undissociated molecules in the oil and water phases. The log P value is closely related to the water solubility, membrane permeability, in vivo ADME process, and affinity of the compound to the receptor and plays a vital role in the permeation of compounds through biological membranes. The log P 0-5 range is optimal for oral drug penetration by passive diffusion, with poor water solubility for high log P compounds and poor lipid […]
experiments to exert drug activity in cells.

db/db mice [2] = test: Serum CHO, TG, FFA, LDL-C, HDL-C and ADPN in the fasted state; assay type: in vivo; conditions: db/db mice; for ADPN (Figure 4j) / FFA (Figure 4g) / HDL-C (Figure 4i) / LDL-C (Figure 4h): serum, individual mice 1-6; for Serum CHO / Serum TG: fasted state, individual mice
Description: The serum was collected by centrifugation at 3000 × g at 4 °C for 15 min and stored at −80 °C until analysis. TG, TC, LDL-C, HDL-C, and FFA were routinely tested on a Chemray 240 automatic biochemical analyzer (Chemray 240, Shenzhen, China). Serum levels of mouse adiponectin, interleukin6 (IL-6), tumor necrosis factor-α (TNF-α) were measured using commercial enzyme-linked immunosorbent assay (ELISA) kits (Nanjing Jiancheng Bioengineering Institute, Nanjing, China) and according to the manufacturer’s instructions. The levels of IL-6, TNF-α in 3T3-L1 adipocyte culture supernatant were also detected by ELISA.

db/db mice [3] = test: Body weight of db/db mice during 35-day treatment; assay type: in vivo; conditions: db/db mice
Description: The lean wild type control and the db/db control mice were given equal vehicle volume (0.5% CMC-Na solution). All mice were monitored for food intake, body weight, and fasting blood glucose during the 35-day trial. Glucose tolerance test (GTT) and insulin resistance test (ITT) were performed at 4 and 5 weeks of treatment, respectively. Metabolic analysis was performed at 5 weeks of treatment. At the end of the study, blood samples were taken through the retroorbital venous sinus of mice, fat depots (brown fat, inguinal subcutaneous fat, epididymal fat, perirenal fat and mesenteric fat depot) were dissected, weighed, and immediately frozen in liquid nitrogen and stored at −80 °C until required. Weight of fat depots are expressed in percentage (fat depots weight /bodyweight * 100%).

[4] = vs vehicle, BJ 75 and 150 mg/kg, BBR 150 mg/kg, Ibu 150 mg/kg

CC(C)Cc1ccc(C(C)C(=O)[O-])cc1.COc1ccc2cc3[n+](cc2c1OC)CCc1cc2c(cc1-3)OCO2.O.O.O.O [BJ, berberine-ibuprofen]
log P [1]: 1.564 | ADPN (Figure 4j) (db/db mice [2]; BJ 75mg/kg): 460 and 566.78 and 483.17 and 443.62 and 491.01 and 609.29 | FFA (Figure 4g) (db/db mice [2]; BJ 75mg/kg): 641.9 and 692.8 and 709.3 and 711.6 and 731.5 and 667 | HDL-C (Figure 4i) (db/db mice [2]; BJ 75mg/kg): 2.6 and 2.7 and 3.1 and 2.1 and 3 and 2.4 | LDL-C (Figure 4h) (db/db mice [2]; BJ 75mg/kg): 4.35 and 5.54 and 4.19 and 5.48 and 5.18 and 4.51 | ADPN (Figure 4j) (db/db mice [2]; BJ 150mg/kg): 563.3 and 624.62 and 712.07 and 705.63 and 665.38 and 609.46 | FFA (Figure 4g) (db/db mice [2]; BJ 150mg/kg): 697.7 and 666.2 and 614.5 and 627 and 678.9 and 614.6 | HDL-C (Figure 4i) (db/db mice [2]; BJ 150mg/kg): 3.5 and 2.9 and 2.4 and 2.8 and 2.7 and 3.1 | LDL-C (Figure 4h) (db/db mice [2]; BJ 150mg/kg): 3.35 and 4.57 and 3.32 and 3.26 and 3.43 and 3.59 | Serum CHO (db/db mice [2]; 75 mg/kg): 4.2 mmol/L and 4.3 mmol/L and 4.6 mmol/L and 3.4 mmol/L and 6.1 mmol/L and 5.3 mmol/L | Serum TG (db/db mice [2]; 75 mg/kg): 0.92 mmol/L and 1.17 mmol/L and 1.79 mmol/L and 1.19 mmol/L and 1.62 mmol/L and 1.33 mmol/L | Serum CHO (db/db mice [2]; 150 mg/kg): 3.2 mmol/L and 4.9 mmol/L and 4.5 mmol/L and 4.2 mmol/L and 3.7 mmol/L and 4.6 mmol/L | Serum TG (db/db mice [2]; 150 mg/kg): 1.18 mmol/L and 1.01 mmol/L and 1.29 mmol/L and 1.1 mmol/L and 1.5 mmol/L | Serum levels of CHO, TG, FFA and LDL-C (db/db mice [2]; [4]): decreased | Serum levels of HDL-C and adiponectin (ADPN) (db/db mice [2]; [4]): increased | Body weight (db/db mice [3]; 75 mg/kg gavage once per day, day 1, individual mice, 75 mg/kg): 42 grams and 38 grams and 33 grams and 41 grams and 34 grams and 40 grams | Body weight (db/db mice [3]; 75 mg/kg gavage once per day, day 4, individual mice, 75 mg/kg): 44 grams and 40 grams and 36 grams and 41 grams and 39 grams and 42 grams | Body weight (db/db mice [3]; 75 mg/kg gavage once per day, day 7, individual mice, 75 mg/kg): 45 grams and 40 grams and 41 grams and 35 grams and 43 grams and 36 grams | Body weight (db/db mice [3]; 75 mg/kg gavage once per day, day 10, individual mice, 75 mg/kg): 43 grams and 40 grams and 42 grams and 35 grams and 44 grams and 36 grams | Body weight (db/db mice [3]; 75 mg/kg gavage once per day, day 13, individual mice, 75 mg/kg): 45 grams and 42 grams and 43 grams and 35 grams and 37 grams and 41 grams and 44 grams | Body weight (db/db mice [3]; 75 mg/kg gavage once per day, day 16, individual mice, 75 mg/kg): 44 grams and 42 grams and 37 grams and 46 grams and 39 grams | Body weight (db/db mice [3]; 75 mg/kg gavage once per day, day 19, individual mice, 75 mg/kg): 47 grams and 42 grams and 46 grams and 38 grams and 48 grams and 37 grams and 44 grams and 45 grams and 41 grams | Body weight (db/db mice [3]; 75 mg/kg gavage once per day, day 22, individual mice, 75 mg/kg): 49 grams and 44 grams and 48 grams and 39 grams and 38 grams and 46 grams and 47 grams and 42 grams | Body weight (db/db mice [3]; 75 mg/kg gavage once per day, day 25, individual mice, 75 mg/kg): 50 grams and 45 grams and 49 grams and 40 grams and 48 grams and 38 grams and 46 grams and 42 grams | Body weight (db/db mice [3]; 75 mg/kg gavage once per day, day 28, individual mice, 75 mg/kg): 50 grams and 46 grams and 40 grams and 49 grams and 45 grams and 47 grams and 41 grams | Body weight (db/db mice [3]; 75 mg/kg gavage once per day, day 31, individual mice, 75 mg/kg): 53 grams and 47 grams and 52 grams and 40 grams and 50 grams and 41 grams and 43 grams | Body weight (db/db mice [3]; 75 mg/kg gavage once per day, day 34, individual mice, 75 mg/kg): 52 grams and 47 grams and 44 grams and 51 grams and 43 grams and 50 grams and 45 grams and 48 grams | Average body weight gain (db/db mice [3]; 75 mg/kg gavage once per day, day 35, mean ± SD): 9.4 ± 2.7 g | Body weight gain in 5 weeks (db/db mice [3]; 75 mg/kg gavage once per day, individual mice, 75 mg/kg): 7 grams and 10 grams and 9 grams and 14 grams and 11 grams | Body weight (db/db mice [3]; 150 mg/kg gavage once per day, day 1, individual mice, 150 mg/kg): 38 grams and 44 grams | Body weight (db/db mice [3]; 150 mg/kg gavage once per day, day 4, individual mice, 150 mg/kg): 39 grams | Body weight (db/db mice [3]; 150 mg/kg gavage once per day, day 7, individual mice, 150 mg/kg): 39 grams | Body weight (db/db mice [3]; 150 mg/kg gavage once per day, day 10, individual mice, 150 mg/kg): 38 grams | Body weight (db/db mice [3]; 150 mg/kg gavage once per day, day 13, individual mice, 150 mg/kg): 40 grams | Body weight (db/db mice [3]; 150 mg/kg gavage once per day, day 16, individual mice, 150 mg/kg): 39 grams
